What all share (assay type): cell-based
For assay [1], the target named is EP2 subtype of the human PGE2 receptor (Homo sapiens, UniProt P43116). Put plainly: cAMP antagonism test on the human EP2 receptor (HTRF cAMP detection). The note with it: hEP2 receptor, read-out: Antagonism hEP2 IC50. Summed up:
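Read-out is a competitive HTRF for cAMP: lysate cAMP displaces cAMP-d2 from Eu cryptate-labelled antibody, and antagonism raises the 665/620 nm ratio. Compound (0.8 nM–16.5 μM) added to EP2 cells 20 min at RT before 60 min PGE2 challenge (3× stock 1.5 nM) with IBMX, followed by 20 min lysis.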

The target of assay [2] is EP4 subtype of the human PGE2 receptor (Homo sapiens, UniProt P35408). The experiment in a line: cAMP antagonism test on the human EP4 receptor (HTRF cAMP detection). The settings on record: selectivity towards hEP4, IC50 measured by cAMP antagonism test. Summed up:
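Competitive HTRF cAMP read-out (cAMP-d2 vs Eu-cryptate anti-cAMP antibody, 665/620 nm ratio) on lysed human EP4 cells. Compound (0.8 nM–16.5 μM) applied 20 min at RT before 60 min PGE2 challenge (3× solution 0.3 nM, IBMX present); 20 min lysis precedes reading.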

Assay [3] has as its target T1, human PGD receptor (Homo sapiens, UniProt Q13258).
T1 sequence (Q13258 1-359): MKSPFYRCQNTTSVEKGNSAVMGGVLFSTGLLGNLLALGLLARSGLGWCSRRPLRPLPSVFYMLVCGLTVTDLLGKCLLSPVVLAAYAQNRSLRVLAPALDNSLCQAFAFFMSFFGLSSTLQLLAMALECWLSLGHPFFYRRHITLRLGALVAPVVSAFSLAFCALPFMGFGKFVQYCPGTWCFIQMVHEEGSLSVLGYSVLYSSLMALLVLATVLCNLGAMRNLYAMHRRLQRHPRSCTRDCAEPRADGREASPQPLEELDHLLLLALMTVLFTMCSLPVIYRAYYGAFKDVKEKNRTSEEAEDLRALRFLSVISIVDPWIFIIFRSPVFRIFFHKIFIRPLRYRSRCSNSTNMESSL
The experiment in a line: cAMP antagonism test on the human prostaglandin D receptor (HTRF cAMP detection). The settings on record: selectivity towards hDP, IC50 measured by cAMP antagonism test. Summed up: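 HTRF competition read-out (665/620 nm ratio ×10000), where higher FRET means less cAMP, i.e. antagonism. Compounds (0.8 nM–16.5 μM) were preincubated 20 min at RT with cells and cAMP-d2, PGD2 (3× solution, 6 nM) in IBMX-containing PBS added for 30 min at RT, then cells lysed 20 min.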

Chain of EP2 subtype of the human PGE2 receptor (P43116 whole entry): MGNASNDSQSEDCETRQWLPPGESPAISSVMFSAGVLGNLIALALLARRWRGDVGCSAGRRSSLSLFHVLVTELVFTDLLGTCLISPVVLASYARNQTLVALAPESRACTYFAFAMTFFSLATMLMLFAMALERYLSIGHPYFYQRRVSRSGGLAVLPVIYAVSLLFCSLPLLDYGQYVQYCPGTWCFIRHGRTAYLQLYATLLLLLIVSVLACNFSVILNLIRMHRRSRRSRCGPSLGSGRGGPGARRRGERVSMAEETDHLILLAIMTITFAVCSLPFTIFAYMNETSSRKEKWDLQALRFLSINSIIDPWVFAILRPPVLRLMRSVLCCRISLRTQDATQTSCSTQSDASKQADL
Chain of EP4 subtype of the human PGE2 receptor (P35408 whole entry): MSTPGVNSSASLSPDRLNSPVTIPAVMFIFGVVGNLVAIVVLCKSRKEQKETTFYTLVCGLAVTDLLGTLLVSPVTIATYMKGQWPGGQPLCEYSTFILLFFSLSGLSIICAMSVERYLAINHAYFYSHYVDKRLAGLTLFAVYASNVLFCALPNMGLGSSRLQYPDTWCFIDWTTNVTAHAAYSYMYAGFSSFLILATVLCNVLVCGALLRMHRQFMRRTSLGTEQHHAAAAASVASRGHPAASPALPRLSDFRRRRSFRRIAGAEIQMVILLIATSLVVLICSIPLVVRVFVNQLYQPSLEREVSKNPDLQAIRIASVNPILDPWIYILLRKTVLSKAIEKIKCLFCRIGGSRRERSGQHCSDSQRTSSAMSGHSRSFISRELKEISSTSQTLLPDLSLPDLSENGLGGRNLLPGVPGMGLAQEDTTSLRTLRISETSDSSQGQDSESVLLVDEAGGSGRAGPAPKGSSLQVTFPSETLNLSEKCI

Take `COCCNC(=O)c1ccc2nn(CC3CCN(C(=O)c4ccc(S(=O)(=O)C(F)(F)F)cc4)CC3)cc2c1C` [Example 25, N-(2-methoxyethyl)-4-methyl-2-[(1-{4-[(trifluoromethyl)-sulphonyl]benzoyl}-piperidin-4-yl)-methyl]-2H-indazol-5-carboxamide]: the IC50 in assay [1] amounted to 25.2 nM. Also, the “Selectivity hEP2/hEP4” value in assay [2] is reported as “xxx (xxx > 100)”. For the same molecule, the “Selectivity hEP2/hDP” value in assay [3] is listed as “xxx (xxx > 100)”.

As to `Cc1c(C(=O)NCC(F)(F)F)ccc2nn(CC3CCN(C(=O)c4ccc(Oc5ccc(F)c(F)c5)cc4)CC3)cc12` [Example 314, 2-({1-[4-(3,4-difluorophenoxy)benzoyl]piperidin-4-yl}methyl)-4-methyl-N-(2,2,2-trifluoroethyl)-2H-indazol-5-carboxamide], in assay [1], the IC50 is 27.8 nM. For the same molecule, the “Selectivity hEP2/hEP4” value in assay [2] is “xxx (xxx > 100)”. The “Selectivity hEP2/hDP” value in assay [3] was “xxx (xxx > 100)”.

On to `COCCNC(=O)c1cc2cn(CC3CN(C(=O)c4ccc(C(F)(F)F)cc4)C3)nc2cc1C` [Example 186, N-(2-methoxyethyl)-6-methyl-2-({1-[4-(trifluoromethyl)benzoyl]azetidin-3-yl}methyl)-2H-indazol-5-carboxamide], for which the IC50 in assay [1] came out at 51.9 nM. Besides, the “Selectivity hEP2/hEP4” value in assay [2] is reported as “xxx (xxx > 100)”. Also, the “Selectivity hEP2/hDP” value in assay [3] is on record as “xxx (xxx > 100)”.

In the case of `COCCNC(=O)c1ccc2nn(CC3CCN(C(=O)c4ccc(-c5ccc(F)cc5)cc4)CC3)cc2c1OCC(F)(F)F` [Example 234, 2-({1-[(4′-fluorobiphenyl-4-yl)carbonyl]piperidin-4-yl}methyl)-N-(2-methoxy-ethyl)-4-(2,2,2-trifluoroethoxy)-2H-indazol-5-carboxamide], in assay [1], the IC50 amounted to 47.7 nM. In assay [2], the “Selectivity hEP2/hEP4” value is “xxx (xxx > 100)”. Besides, the “Selectivity hEP2/hDP” value in assay [3] is listed as “xxx (xxx > 100)”.

For `Cc1cc2nn(CC3CN(C(=O)c4ccc(OC(F)(F)F)cc4)C3)cc2cc1C(=O)NCC(F)(F)F` [Example 195, 6-methyl-N-(2,2,2-trifluoroethyl)-2-({1-[4-(trifluoromethoxy)benzoyl]azetidin-3-yl}methyl)-2H-indazol-5-carboxamide], in assay [1], the IC50 is 227 nM. Also, the “Selectivity hEP2/hEP4” value in assay [2] is “xx (xx: 10-100)”. Further, in assay [3], the “Selectivity hEP2/hDP” value was “xx (xx: 10-100)”.

With `Cc1c(C(=O)NCCSC(F)(F)F)ccc2nn(CC3CN(C(=O)c4ccc(Cl)cc4)C3)cc12` [Example 127, 2-{[1-(4-chlorobenzoyl)azetidin-3-yl]methyl}-4-methyl-N-{2-[(trifluoromethyl)sulphanyl]ethyl}-2H-indazol-5-carboxamide], the IC50 in assay [1] stood at 55.6 nM. For the same molecule, in assay [2], the “Selectivity hEP2/hEP4” value is on record as “xxx (xxx > 100)”. Besides, in assay [3], the “Selectivity hEP2/hDP” value is “xxx (xxx > 100)”.

Consider `Cc1c(C(=O)NCC(F)(F)F)ccc2nn(CC3CCN(C(=O)c4ccc(-c5ccc(F)cn5)cc4)CC3)cc12` [Example 325, 2-({1-[4-(5-fluoropyridin-2-yl)benzoyl]piperidin-4-yl}methyl)-4-methyl-N-(2,2,2-trifluoroethyl)-2H-indazol-5-carboxamide], for which the IC50 in assay [1] was 321 nM. Also, the “Selectivity hEP2/hEP4” value in assay [2] is given as “xx (xx: 10-100)”. The “Selectivity hEP2/hDP” value in assay [3] is “xx (xx: 10-100)”.

In the case of `COCCNC(=O)c1ccc2nn(CC3CCN(C(=O)c4ccc(-c5cccc(OC)n5)cc4)CC3)cc2c1C` [Example 378, N-(2-methoxyethyl)-2-({1-[4-(6-methoxypyridin-2-yl)benzoyl]piperidin-4-yl}methyl)-4-methyl-2H-indazol-5-carboxamide], the 50% inhibitory concentration (IC50) in assay [1] came out at 7.77 nM. Besides, the “Selectivity hEP2/hEP4” value in assay [2] is given as “xxx (xxx > 100)”. In assay [3], the “Selectivity hEP2/hDP” value is listed as “xxx (xxx > 100)”.

With `COCCNC(=O)c1cc2cn(CC3CN(C(=O)c4ccc(-c5ccc(F)cc5)cc4)C3)nc2cc1C` [Example 204, 2-({1-[(4′-fluorobiphenyl-4-yl)carbonyl]azetidin-3-yl}methyl)-N-(2-methoxy-ethyl)-6-methyl-2H-indazol-5-carboxamide], the IC50 in assay [1] was 10 nM. Further, the “Selectivity hEP2/hEP4” value in assay [2] is reported as “xxx (xxx > 100)”. Moreover, in assay [3], the “Selectivity hEP2/hDP” value is on record as “xxx (xxx > 100)”.

In the case of `Cc1c(C(=O)NCCN2CCOCC2)ccc2nn(CC3CCN(C(=O)c4ccc(Oc5ccc(F)cc5)cc4)CC3)cc12` [Example 67, 2-({1-[4-(4-fluoro-phenoxy)benzoyl]-piperidin-4-yl}-methyl)-4-methyl-N-(2-morpholinoethyl)-2H-indazol-5-carboxamide], in assay [1], the half-inhibitory concentration (IC50) turned out to be 405 nM. The “Selectivity hEP2/hEP4” value in assay [2] was “xx (xx: 10-100)”. Moreover, in assay [3], the “Selectivity hEP2/hDP” value was “xx (xx: 10-100)”.

For `Cc1c(C(=O)NCCSC(F)(F)F)ccc2nn(C[C@@H]3CCN(C(=O)c4ccc(Cl)cc4)C3)cc12` [Example 220, 2-{[(R)-1-(4-chlorobenzoyl)pyrrolidin-3-yl]methyl}-4-methyl-N-{2-[(trifluoromethyl)sulphanyl]ethyl}-2H-indazol-5-carboxamide], the IC50 in assay [1] was 147 nM. Further, the “Selectivity hEP2/hEP4” value in assay [2] is “xxx (xxx > 100)”. For the same molecule, the “Selectivity hEP2/hDP” value in assay [3] was “xxx (xxx > 100)”.

Regarding `Cc1c(C(=O)NCCOC(F)(F)F)ccc2nn(CC3CN(C(=O)c4ccc(Cl)cc4)C3)cc12` [Example 152, 2-{[1-(4-chlorobenzoyl)azetidin-3-yl]methyl}-4-methyl-N-[2-(trifluoromethoxy)ethyl]-2H-indazol-5-carboxamide], the IC50 in assay [1] was 33.3 nM. Further, the “Selectivity hEP2/hEP4” value in assay [2] is listed as “xxx (xxx > 100)”. Also, the “Selectivity hEP2/hDP” value in assay [3] is on record as “xxx (xxx > 100)”.

`COCCNC(=O)c1ccc2nn(CC3CCN(C(=O)c4ccc(OC(F)(F)F)cc4)CC3)cc2c1C` [Example 55, N-(2-methoxyethyl)-4-methyl-2-({1-[4-(trifluoromethoxy)benzoyl]piperidin-4-yl}methyl)-2H-indazol-5-carboxamide]: in assay [1], the concentration for half-maximal inhibition (IC50) was 9.67 nM. Further, in assay [2], the “Selectivity hEP2/hEP4” value is reported as “xxx (xxx > 100)”. For the same molecule, the “Selectivity hEP2/hDP” value in assay [3] was “xxx (xxx > 100)”.

For the molecule `[2H]C([2H])([2H])OC([2H])([2H])C([2H])([2H])NC(=O)c1ccc2nn(CC3CCN(C(=O)c4ccc(Cl)cc4)CC3)cc2c1C` [Example 115, 2-{[1-(4-chlorobenzoyl)piperidin-4-yl]methyl}-N-(2-[^2H3]methoxy[^2H4]ethyl)-4-methyl-2H-indazol-5-carboxamide], in assay [1], the IC50 is 9.05 nM. Further, in assay [2], the “Selectivity hEP2/hEP4” value is given as “xxx (xxx > 100)”. Besides, the “Selectivity hEP2/hDP” value in assay [3] is recorded as “xxx (xxx > 100)”.

Regarding `COc1c(C(=O)NCC(F)(F)F)ccc2nn(CC3CCN(C(=O)c4ccc(Cl)cc4)CC3)cc12` [Example 263, 2-{[1-(4-chlorobenzoyl)piperidin-4-yl]methyl}-4-methoxy-N-(2,2,2-trifluoro-ethyl)-2H-indazol-5-carboxamide], the IC50 in assay [1] amounted to 181 nM. Also, the “Selectivity hEP2/hEP4” value in assay [2] was “xx (xx: 10-100)”. The “Selectivity hEP2/hDP” value in assay [3] was “xx (xx: 10-100)”.

As to `COCCNC(=O)c1ccc2nn(CC3CN(C(=O)c4ccc(-c5ccc(F)cc5)cc4)C3)cc2c1C` [Example 158, 2-({1-[(4′-fluorobiphenyl-4-yl)carbonyl]azetidin-3-yl}methyl)-N-(2-methoxy-ethyl)-4-methyl-2H-indazol-5-carboxamide], the IC50 in assay [1] was 6.21 nM. Moreover, the “Selectivity hEP2/hEP4” value in assay [2] is “xxx (xxx > 100)”. Further, the “Selectivity hEP2/hDP” value in assay [3] is “xxx (xxx > 100)”.

Take `COc1ccc2cc(C(=O)N3CCC(Cn4cc5c(C)c(C(=O)NCC(F)(F)F)ccc5n4)CC3)n(C)c2c1` [Example 295, 2-({1-[(6-methoxy-1-methyl-1H-indol-2-yl)carbonyl]piperidin-4-yl}methyl)-4-methyl-N-(2,2,2-trifluoroethyl)-2H-indazol-5-carboxamide]: the concentration for half-maximal inhibition (IC50) in assay [1] is 70.8 nM. Besides, the “Selectivity hEP2/hEP4” value in assay [2] is recorded as “xxx (xxx > 100)”. Also, the “Selectivity hEP2/hDP” value in assay [3] was “xxx (xxx > 100)”.

For the molecule `Cc1c(C(=O)NCCOC2CCC2)ccc2nn(CC3CN(C(=O)c4ccc(OC(F)(F)F)cc4)C3)cc12` [Example 137, N-[2-(cyclobutyloxy)ethyl]-4-methyl-2-({1-[4-(trifluoromethoxy)benzoyl]azetidin-3-yl}methyl)-2H-indazol-5-carboxamide], the half-maximal inhibitory concentration (IC50) in assay [1] amounted to 7.65 nM. Besides, the “Selectivity hEP2/hEP4” value in assay [2] is “xxx (xxx > 100)”. For the same molecule, the “Selectivity hEP2/hDP” value in assay [3] was “xxx (xxx > 100)”.

Consider `COCCNC(=O)c1ccc2nn(CC3CCN(C(=O)c4ccc(F)cc4)CC3)cc2c1C` [Example 22, 2-{[1-(4-fluoro-benzoyl)piperidin-4-yl]methyl}-N-(2-methoxyethyl)-4-methyl-2H-indazol-5-carboxamide], for which the IC50 in assay [1] worked out at 30.3 nM. Moreover, the “Selectivity hEP2/hEP4” value in assay [2] is given as “xxx (xxx > 100)”. Moreover, the “Selectivity hEP2/hDP” value in assay [3] is “xxx (xxx > 100)”.

The values above are taken from patent US9062041B2 (Bayer Intellectual Property GmbH, priority 2011, dated 2015).
